pEC50: −log10 of the molar value. Activity calls are given as the source filed them. The rule behind the calls is not given here.
molecular target: Trace amine-associated receptor 1 (Homo sapiens) (UniProt Q96RJ0); experiment: activators of human TAAR1 signalling – cell-based, fluorescence, MedChem round 2, SAR follow-up (AID 1053181); details: TAAR1-expressing cells, fluorescence agonist read-out
Sequence (Q96RJ0 whole entry, looked up, the tested form may be a part): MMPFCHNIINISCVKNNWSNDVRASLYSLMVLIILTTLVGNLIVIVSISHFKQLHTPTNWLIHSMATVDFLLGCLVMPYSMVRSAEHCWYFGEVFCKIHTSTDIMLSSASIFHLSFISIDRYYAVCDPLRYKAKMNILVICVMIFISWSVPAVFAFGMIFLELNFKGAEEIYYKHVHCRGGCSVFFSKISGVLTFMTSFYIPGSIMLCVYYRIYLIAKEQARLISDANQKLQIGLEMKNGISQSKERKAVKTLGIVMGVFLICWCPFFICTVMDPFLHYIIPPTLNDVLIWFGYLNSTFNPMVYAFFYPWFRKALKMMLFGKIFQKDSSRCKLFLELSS

Row | Compound | pEC50 | EC50
1 | N#Cc1c(C(F)(F)F)cc(-c2ccc(Cl)cc2)nc1SCC(=O)N1CCCC1 | 5.97 | –
2 | N#Cc1c(C(F)(F)F)cc(-c2ccc(Cl)cc2)nc1SCC(=O)N1CCCCCC1 | – | > 29900 nM (inactive)
3 | N#Cc1c(C(F)(F)F)cc(-c2ccc(Cl)cc2)nc1SCC(=O)Nc1ncccn1 | 8.43 | –
4 | Cc1ccc(C(=O)CCN2CCC(c3ccccc3)C2)cc1 (configuration not stated) | 6.17 | –
5 | CC(CN1CCCC1Cc1ccccc1)C(=O)c1ccc2c(c1)OCCO2 (configuration not stated) | 5.53 | –
6 | O=C(CCN1CCC(c2ccccc2)C1)c1ccccc1 (configuration not stated) | 6.12 | –
7 | COc1cc(C(=O)CCN2CCC(c3ccccc3)C2)cc(OC)c1OC (configuration not stated) | 6.38 | –
